From ChEMBL document CHEMBL5321200, “Discovery of the GSH responsive "Y-PROTACs" targeting ALK and CDK4/6 as a potential treatment for cancer” (Eur J Med Chem, 2023)
pEC50, pIC50: −log10 of the molar value. Active and inactive are the calls of the source. No cut-off for these calls is given here.

Key:
[1] = molecular target: T1, Protein cereblon/Cyclin-dependent kinase 4 (Homo sapiens, UniProt P11802+Q96SW2); assay: PROTAC activity at CRBN/CDK4 in human NCI-H3122 cells assessed as induction of CDK4 protein degradation at 5 uM measured after 16 hrs by Western blot analysis; format: cell-based
Target sequence in this assay (P11802 2-303 limits assumed): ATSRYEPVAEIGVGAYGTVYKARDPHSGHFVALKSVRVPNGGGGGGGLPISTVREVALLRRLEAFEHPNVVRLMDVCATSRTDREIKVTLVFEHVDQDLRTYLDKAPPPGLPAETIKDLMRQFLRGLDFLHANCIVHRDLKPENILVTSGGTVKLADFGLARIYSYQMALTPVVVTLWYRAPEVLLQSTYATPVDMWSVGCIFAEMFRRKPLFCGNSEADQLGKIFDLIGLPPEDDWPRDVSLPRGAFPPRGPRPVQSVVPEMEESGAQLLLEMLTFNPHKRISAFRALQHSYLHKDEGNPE
Target sequence in this assay (Q96SW2 whole entry partner): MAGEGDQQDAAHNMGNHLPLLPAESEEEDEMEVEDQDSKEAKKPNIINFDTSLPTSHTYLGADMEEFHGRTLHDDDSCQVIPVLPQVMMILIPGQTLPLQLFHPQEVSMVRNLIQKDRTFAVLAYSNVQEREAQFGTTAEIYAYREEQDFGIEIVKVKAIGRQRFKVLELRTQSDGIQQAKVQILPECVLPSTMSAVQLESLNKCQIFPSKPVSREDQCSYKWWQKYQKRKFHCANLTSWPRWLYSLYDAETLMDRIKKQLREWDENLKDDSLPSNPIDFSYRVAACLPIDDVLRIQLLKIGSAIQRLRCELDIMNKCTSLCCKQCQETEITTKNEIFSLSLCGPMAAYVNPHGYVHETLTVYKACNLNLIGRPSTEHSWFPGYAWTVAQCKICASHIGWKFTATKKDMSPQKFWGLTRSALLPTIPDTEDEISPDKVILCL

NCI-H3122 [2] = assay: Induction of apoptosis in human NCI-H3122 cells assessed as early apoptotic cells at 0.625 uM incubated for 48 hrs by Annexin V-FITC/propidium iodide staining based flow cytometric analysis (reference value: 0.71%); format: functional
NCI-H3122 [3] = assay: Antiproliferative activity against human NCI-H3122 cells assessed as inhibition of cell growth incubated for 5 days by MTT assay; format: functional, cell-based; settings: NCI-H3122, 120 h
[4] = molecular target: Protein cereblon/ALK tyrosine kinase receptor/Echinoderm microtubule-associated protein-like 4 (Homo sapiens, UniProt Q96SW2+Q9HC35+Q9UM73); assay: PROTAC activity at CRBN/EML4-ALK in human NCI-H3122 cells assessed as reduction in EML4-ALK fusion protein level incubated for 24 hrs by Western blot analysis; format: cell-based
NCI-H3122 [5] = assay: Antitumor activity against human NCI-H3122 cells xenografted in BALB/c nude mouse assessed as reduction in tumor weight at 75 mg/kg, IG administered once daily for 18 days and measured after 12 hrs of last dose; format: functional, organism-based; settings: time 444.0 hrs
[6] = molecular target: T2, Protein cereblon/ALK tyrosine kinase receptor/Echinoderm microtubule-associated protein-like 4 (Homo sapiens) (UniProt Q9UM73+Q9HC35+Q96SW2); assay: PROTAC activity at CRBN/EML4-ALK in human NCI-H3122 cells assessed as downregulation of phosphorylated STAT3 level by Western blot analysis; format: cell-based
T2 sequence (Q96SW2 whole entry partner): as above
T2 sequence (Q9HC35 whole entry partner): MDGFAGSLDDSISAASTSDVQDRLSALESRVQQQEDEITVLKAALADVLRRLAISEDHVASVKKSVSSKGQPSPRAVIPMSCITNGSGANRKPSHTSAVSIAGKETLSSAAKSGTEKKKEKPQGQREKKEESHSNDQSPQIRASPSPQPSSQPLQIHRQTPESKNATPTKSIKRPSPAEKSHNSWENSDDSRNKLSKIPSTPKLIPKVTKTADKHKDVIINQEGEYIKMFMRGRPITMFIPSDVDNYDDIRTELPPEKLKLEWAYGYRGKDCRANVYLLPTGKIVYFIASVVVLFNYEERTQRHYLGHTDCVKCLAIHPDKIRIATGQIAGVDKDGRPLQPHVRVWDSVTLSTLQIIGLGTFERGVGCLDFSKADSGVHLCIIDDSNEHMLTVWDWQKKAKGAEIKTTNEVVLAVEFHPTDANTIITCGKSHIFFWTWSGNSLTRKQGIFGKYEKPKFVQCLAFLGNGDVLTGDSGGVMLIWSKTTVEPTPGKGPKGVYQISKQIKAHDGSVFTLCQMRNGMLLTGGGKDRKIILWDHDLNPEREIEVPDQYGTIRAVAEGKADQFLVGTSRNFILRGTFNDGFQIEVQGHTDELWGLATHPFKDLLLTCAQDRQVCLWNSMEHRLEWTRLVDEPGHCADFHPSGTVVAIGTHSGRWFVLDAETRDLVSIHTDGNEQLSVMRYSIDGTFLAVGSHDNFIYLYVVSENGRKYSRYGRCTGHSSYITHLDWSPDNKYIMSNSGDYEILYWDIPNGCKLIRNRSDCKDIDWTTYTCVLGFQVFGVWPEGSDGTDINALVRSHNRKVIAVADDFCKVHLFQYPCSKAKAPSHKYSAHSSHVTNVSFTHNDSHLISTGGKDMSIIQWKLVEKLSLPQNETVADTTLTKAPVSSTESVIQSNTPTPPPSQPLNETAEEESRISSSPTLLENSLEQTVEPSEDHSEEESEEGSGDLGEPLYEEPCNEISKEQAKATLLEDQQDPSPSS
T2 sequence (Q9UM73 19-1620 limits assumed): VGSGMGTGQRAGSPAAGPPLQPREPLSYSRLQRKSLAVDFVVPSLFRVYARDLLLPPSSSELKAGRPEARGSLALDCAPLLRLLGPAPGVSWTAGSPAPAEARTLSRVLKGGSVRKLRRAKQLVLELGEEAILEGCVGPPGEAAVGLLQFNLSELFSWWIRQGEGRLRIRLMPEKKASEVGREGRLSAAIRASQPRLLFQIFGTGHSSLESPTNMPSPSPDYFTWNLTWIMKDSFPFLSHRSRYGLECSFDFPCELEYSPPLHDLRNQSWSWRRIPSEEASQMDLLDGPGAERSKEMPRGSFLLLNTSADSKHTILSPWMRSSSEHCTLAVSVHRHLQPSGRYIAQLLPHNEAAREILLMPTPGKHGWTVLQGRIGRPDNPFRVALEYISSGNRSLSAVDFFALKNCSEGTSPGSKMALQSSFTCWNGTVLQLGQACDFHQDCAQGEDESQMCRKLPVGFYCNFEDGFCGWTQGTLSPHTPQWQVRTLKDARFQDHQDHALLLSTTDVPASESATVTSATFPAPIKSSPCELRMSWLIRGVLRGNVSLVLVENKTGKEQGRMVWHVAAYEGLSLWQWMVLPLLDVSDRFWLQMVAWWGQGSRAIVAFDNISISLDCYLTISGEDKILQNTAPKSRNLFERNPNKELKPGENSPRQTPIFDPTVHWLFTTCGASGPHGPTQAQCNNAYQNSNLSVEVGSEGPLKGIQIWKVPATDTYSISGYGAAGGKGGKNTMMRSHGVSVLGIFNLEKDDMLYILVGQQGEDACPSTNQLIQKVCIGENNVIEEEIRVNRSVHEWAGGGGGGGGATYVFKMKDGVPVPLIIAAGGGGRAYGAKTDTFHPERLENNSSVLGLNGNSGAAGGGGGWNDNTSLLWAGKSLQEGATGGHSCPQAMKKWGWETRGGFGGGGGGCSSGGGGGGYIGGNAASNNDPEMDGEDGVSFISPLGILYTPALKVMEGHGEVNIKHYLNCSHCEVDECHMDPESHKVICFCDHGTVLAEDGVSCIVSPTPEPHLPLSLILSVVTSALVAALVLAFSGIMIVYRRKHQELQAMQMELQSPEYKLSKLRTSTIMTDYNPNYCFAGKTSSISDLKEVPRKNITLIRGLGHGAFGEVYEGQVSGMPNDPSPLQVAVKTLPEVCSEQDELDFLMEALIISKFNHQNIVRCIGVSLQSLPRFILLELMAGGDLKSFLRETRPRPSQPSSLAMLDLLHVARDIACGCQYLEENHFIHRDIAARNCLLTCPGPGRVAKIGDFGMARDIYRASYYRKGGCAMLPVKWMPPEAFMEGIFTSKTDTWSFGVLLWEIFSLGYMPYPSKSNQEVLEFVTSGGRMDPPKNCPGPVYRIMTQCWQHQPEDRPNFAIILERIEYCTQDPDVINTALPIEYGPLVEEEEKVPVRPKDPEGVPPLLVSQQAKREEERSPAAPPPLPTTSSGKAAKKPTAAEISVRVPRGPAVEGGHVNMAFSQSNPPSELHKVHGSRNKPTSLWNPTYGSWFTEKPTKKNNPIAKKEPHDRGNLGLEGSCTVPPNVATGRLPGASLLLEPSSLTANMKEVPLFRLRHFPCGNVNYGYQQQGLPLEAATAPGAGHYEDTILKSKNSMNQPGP

[7] = Stability of the compound in PBS buffer incubated upto 24 hrs in the presence of GSH by LC-MS/MS analysis; format: physicochemical
NCI-H3122 [8] = assay: Cell cycle arrest in human NCI-H3122 cells assessed as accumulation of cells at S phase at 0.312 uM incubated for 24 hrs by propidium iodide staining based flow cytometric analysis (reference value: 29.94%); format: functional
NCI-H1299 = assay: Antiproliferative activity against human NCI-H1299 cells assessed as inhibition of cell growth pretreated with GSH followed by compound addition and incubated for 3 to 5 days by MTT assay; format: functional, cell-based
[9] = Toxicity in BALB/c nude mouse xenografted with human NCI-H3122 cells assessed as effect on visceral heart morphology at 75 mg/kg, IG administered once daily for 18 days and measured after 12 hrs of last dose by H and E staining based analysis; format: organism-based; settings: in vivo, po, 444 h
[10] = molecular target: Protein cereblon/Cyclin-dependent kinase 6 (Homo sapiens) (UniProt Q00534+Q96SW2); assay: PROTAC activity at CRBN/CDK6 in human NCI-H2228 cells assessed as reduction in CDK6 protein level by Western blot analysis; format: cell-based
Sequence of Protein cereblon/Cyclin-dependent kinase 6 (Homo sapiens) (Q00534 whole entry, looked up): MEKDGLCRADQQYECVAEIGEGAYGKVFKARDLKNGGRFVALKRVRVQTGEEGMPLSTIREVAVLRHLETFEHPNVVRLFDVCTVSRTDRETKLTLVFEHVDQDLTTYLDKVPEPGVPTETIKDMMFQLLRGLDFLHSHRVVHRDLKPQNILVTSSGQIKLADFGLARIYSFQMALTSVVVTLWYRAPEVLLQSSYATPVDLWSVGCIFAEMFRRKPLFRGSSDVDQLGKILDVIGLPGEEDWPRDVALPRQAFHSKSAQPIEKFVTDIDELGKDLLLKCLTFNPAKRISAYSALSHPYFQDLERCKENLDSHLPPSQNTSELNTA
Sequence of Protein cereblon/Cyclin-dependent kinase 6 (Homo sapiens) (Q96SW2 whole entry, looked up): as the sequence (Q96SW2 whole entry partner) above

NCI-H3122 [11] = assay: Induction of apoptosis in human NCI-H3122 cells assessed as necrotic cells at 2.5 uM incubated for 48 hrs by Annexin V-FITC/propidium iodide staining based flow cytometric analysis (reference value: 0.57%); format: functional
[12] = molecular target: T1, Protein cereblon/Cyclin-dependent kinase 4; assay: PROTAC activity at CRBN/CDK4 in human NCI-H3122 cells assessed as degradation of CDK4 protein at 5 uM pretreated with palbociclib for 4 hrs followed by compound addition and measured after 24 hrs by Western blot analysis; format: cell-based
Target sequence in this assay (P11802 2-303 limits assumed): as the sequence (P11802 2-303 limits assumed) above
Target sequence in this assay (Q96SW2 whole entry partner): as the sequence (Q96SW2 whole entry partner) above

NCI-H3122 [13] = assay: Cell cycle arrest in human NCI-H3122 cells assessed as accumulation of cells at S phase at 1.25 uM incubated for 24 hrs by propidium iodide staining based flow cytometric analysis (reference value: 29.94%); format: functional
NCI-H3122 [14] = assay: Induction of apoptosis in human NCI-H3122 cells assessed as viable cells at 1.25 uM incubated for 48 hrs by Annexin V-FITC/propidium iodide staining based flow cytometric analysis (reference value: 95.66%); format: functional; settings: read-out: Activity
[15] = Toxicity in BALB/c nude mouse xenografted with human NCI-H3122 cells assessed as effect on visceral kidney morphology at 75 mg/kg, IG administered once daily for 18 days and measured after 12 hrs of last dose by H and E staining based analysis; format: organism-based; settings: in vivo, po, 444 h
[16] = Toxicity in BALB/c nude mouse xenografted with human NCI-H3122 cells assessed as effect on heart function at 75 mg/kg, IG administered once daily for 18 days and measured after 12 hrs of last dose by H and E staining based assay; format: organism-based; settings: in vivo, po, 444 h
NCI-H3122 [17] = assay: Cell cycle arrest in human NCI-H3122 cells assessed as accumulation of cells at S phase at 2.5 uM incubated for 24 hrs by propidium iodide staining based flow cytometric analysis (reference value: 29.94%); format: functional
[18] = molecular target: T1, Protein cereblon/Cyclin-dependent kinase 4; assay: PROTAC activity at CRBN/CDK4 in human NCI-H3122 cells assessed as induction of CDK4 protein degradation at 10 uM incubated for 24 hrs by Western blot analysis relative to control; format: cell-based
Target sequence in this assay (P11802 2-303 limits assumed): as the sequence (P11802 2-303 limits assumed) above
Target sequence in this assay (Q96SW2 whole entry partner): as the sequence (Q96SW2 whole entry partner) above

[19] = molecular target: T2, Protein cereblon/ALK tyrosine kinase receptor/Echinoderm microtubule-associated protein-like 4 (Homo sapiens); assay: PROTAC activity at CRBN/EML4-ALK in human NCI-H3122 cells assessed as reduction in EML4-ALK fusion protein level at 5 uM incubated for 48 hrs followed by compound washout and measured within 16 hrs by Western blot analysis; format: cell-based
NCI-H3122 [20] = assay: Antitumor activity against human NCI-H3122 cells xenografted in BALB/c nude mouse assessed as tumor growth inhibition at 50 mg/kg, IG administered once daily for 18 days and measured after 12 hrs of last dose relative to control; format: functional; settings: NCI-H3122, po, time 444 hrs, read-out: TGI
[21] = Toxicity in BALB/c nude mouse xenografted with human NCI-H3122 cells assessed as effect on lung function at 75 mg/kg, IG administered once daily for 18 days by H and E staining based assay; format: organism-based; settings: in vivo, po, 432 h, time 18 day
NCI-H3122 [22] = assay: Induction of apoptosis in human NCI-H3122 cells assessed as viable cells at 0.312 uM incubated for 48 hrs by Annexin V-FITC/propidium iodide staining based flow cytometric analysis (reference value: 95.66%); format: functional; settings: read-out: Activity
NCI-H3122 [23] = assay: Antiproliferative activity against human NCI-H3122 cells assessed as inhibition of cell growth pretreated with GSH followed by compound addition and incubated for 3 to 5 days by MTT assay; format: functional, cell-based
[24] = molecular target: T1, Protein cereblon/Cyclin-dependent kinase 4; assay: PROTAC activity at CRBN/CDK4 in human NCI-H3122 cells assessed as reduction in CDK4 protein level incubated for 24 hrs by Western blot analysis; format: cell-based
Target sequence in this assay (P11802 whole entry): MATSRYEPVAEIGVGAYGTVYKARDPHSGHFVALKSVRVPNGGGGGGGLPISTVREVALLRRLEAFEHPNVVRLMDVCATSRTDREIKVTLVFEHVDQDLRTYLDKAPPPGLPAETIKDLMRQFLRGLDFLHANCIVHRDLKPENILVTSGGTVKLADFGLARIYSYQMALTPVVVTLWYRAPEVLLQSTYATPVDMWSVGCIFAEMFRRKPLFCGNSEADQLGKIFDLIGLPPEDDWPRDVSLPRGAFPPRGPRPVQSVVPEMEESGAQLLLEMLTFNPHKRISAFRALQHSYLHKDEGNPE
Target sequence in this assay (Q96SW2 whole entry): as the sequence (Q96SW2 whole entry partner) above

[25] = Stability of the compound in PBS buffer assessed as cleavage half life in presence of GSH by LC-MS/MS analysis; format: physicochemical; settings: PBS buffer with GSH
NCI-H3122 [26] = assay: Induction of apoptosis in human NCI-H3122 cells assessed as viable cells at 0.625 uM incubated for 48 hrs by Annexin V-FITC/propidium iodide staining based flow cytometric analysis (reference value: 95.66%); format: functional; settings: read-out: Activity
Mus musculus = assay: In vivo PROTAC activity at CDK4 in BALB/c nude mouse xenografted with human NCI-H3122 cells assessed as reduction in CDK4 protein expression level in tumor at 75 mg/kg, IG administered once daily for 18 days and measured after 12 hrs of last dose by immunohistochemical analysis; format: functional, organism-based; settings: time 444.0 hrs
[27] = molecular target: T1, Protein cereblon/Cyclin-dependent kinase 4; assay: PROTAC activity at CRBN/CDK4 in human NCI-H3122 cells assessed as increase in CDK4 protein level at 5 uM measured after 24 hrs by Western blot analysis; format: cell-based
Target sequence in this assay (P11802 2-303 limits assumed): as the sequence (P11802 2-303 limits assumed) above
Target sequence in this assay (Q96SW2 whole entry partner): as the sequence (Q96SW2 whole entry partner) above

With `CC(=O)c1c(C)c2cnc(Nc3ccc(N4CCN(CC(=O)NCCSSCCN(CC(=O)NCCNc5cccc6c5C(=O)N(C5CCC(=O)NC5=O)C6=O)C(=O)CCCCCCC(=O)N5CCC(c6cc(OC(C)C)c(Nc7ncc(Cl)c(Nc8ccccc8S(=O)(=O)C(C)C)n7)cc6C)CC5)CC4)cn3)nc2n(C2CCCC2)c1=O` (centres undefined) the Activity [1] was “Active”, the Activity (NCI-H3122 [2]) was 0.88% and the pIC50 (NCI-H3122 [3]) was 6.96. For the same compound, the pEC50 [4] was 5.55, the Activity (NCI-H3122 [5]) was “Active” and the Activity [6] was “Active”. For the same compound, the Stability [7] was “Stable”, the Activity (NCI-H3122 [8]) was 17.52% and the pIC50 (NCI-H1299) was 5.33. For the same compound, the Activity [9] was “Non-Toxic”, the Activity [10] was “inactive” and the Activity (NCI-H3122 [11]) was 1.01%. The Activity [12] was “inactive”, the Activity (NCI-H3122 [13]) was 10.58% and the viability at 1.25 µM (NCI-H3122 [14]) was 86.6%. For the same compound, the Activity [15] was “Non-Toxic”, the Activity [16] was “Non-Toxic” and the Activity (NCI-H3122 [17]) was 6.04%. The Activity [18] was 70%, the Activity [19] was “Active” and the inhibition in vivo at 50 mg/kg (NCI-H3122 [20]) was 54.8%. The Activity [21] was “Non-Toxic”, the viability at 0.312 µM (NCI-H3122 [22]) was 91.5% and the pIC50 (NCI-H3122 [23]) was 7.05. For the same compound, the pEC50 [24] was 5.43, the half-life [25] was over 24 h and the viability at 0.625 µM (NCI-H3122 [26]) was 88.9%. The Activity (Mus musculus) was “Active” and the Activity [27] was “inactive”.
